Assay results published in PubChem BioAssay AID248 (DTP/NCI, 2004).
“And” between values parts separate entries of the source, which are not always exact repeats. Equal values may be shown once. Inconclusive results and toxic doses are left out.

System: L1210 leukemia ip in BDF1 mice, survival T/C
Assay: NCI In Vivo Anticancer Drug Screen. Data for tumor model L1210 Leukemia (intraperitoneal) in B6D2F1 (BDF1) mice
Conditions: endpoint: mean survival time, higher = longer survival
Summary of the method: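 In this screen, tumor-bearing mice given compound are compared to those given vehicle, and their survival values are reported as a treated-to-control quotient.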

[1] = dose: 25.0 mg/kg/injection, schedule: Q04DX003 (ip), vehicle: Klucel (hydroxypropylcellulose) (HPC)
[2] = dose: 50.0 mg/kg/injection, schedule: Q04DX003 (ip), vehicle: Klucel (hydroxypropylcellulose) (HPC)
[3] = dose: 100.0 mg/kg/injection, schedule: Q04DX003 (ip), vehicle: Klucel (hydroxypropylcellulose) (HPC)
[4] = dose: 200.0 mg/kg/injection, schedule: Q04DX003 (ip), vehicle: Klucel (hydroxypropylcellulose) (HPC)
[5] = dose: 400.0 mg/kg/injection, schedule: Q04DX003 (ip), vehicle: Klucel (hydroxypropylcellulose) (HPC)
[6] = dose: 100.0 mg/kg/injection, schedule: Q01DX001 (ip), vehicle: saline
[7] = dose: 200.0 mg/kg/injection, schedule: Q01DX001 (ip), vehicle: saline
[8] = dose: 100.0 mg/kg/injection, schedule: Q01DX009 (ip), vehicle: saline with Tween-80
[9] = dose: 200.0 mg/kg/injection, schedule: Q01DX009 (ip), vehicle: saline with Tween-80
[10] = dose: 25.0 mg/kg/injection, schedule: Q01DX009 (ip), vehicle: saline
[11] = dose: 50.0 mg/kg/injection, schedule: Q01DX009 (ip), vehicle: saline
[12] = dose: 100.0 mg/kg/injection, schedule: Q01DX009 (ip), vehicle: saline
[13] = dose: 100.0 mg/kg/injection, schedule: Q01DX001 (ip), vehicle: Klucel (hydroxypropylcellulose) (HPC)
[14] = dose: 50.0 mg/kg/injection, schedule: Q01DX009 (ip), vehicle: Klucel (hydroxypropylcellulose) (HPC)
[15] = dose: 100.0 mg/kg/injection, schedule: Q01DX009 (ip), vehicle: Klucel (hydroxypropylcellulose) (HPC)
[16] = dose: 100.0 mg/kg/injection, schedule: Q04DX003 (ip), vehicle: saline
[17] = dose: 200.0 mg/kg/injection, schedule: Q04DX003 (ip), vehicle: saline
[18] = dose: 400.0 mg/kg/injection, schedule: Q04DX003 (ip), vehicle: saline
[19] = dose: 200.0 mg/kg/injection, schedule: Q01DX009 (ip), vehicle: saline
[20] = dose: 400.0 mg/kg/injection, schedule: Q01DX001 (ip), vehicle: saline

O=C(COc1ccc(Cl)cc1)Nc1ccc(Br)cc1
T/C (dose: 100.0 mg/kg/injection, schedule: Q04DX002 (ip), vehicle: gum acacia): 97 % of control
T/C (dose: 200.0 mg/kg/injection, schedule: Q04DX002 (ip), vehicle: gum acacia): 106 % of control
T/C (dose: 400.0 mg/kg/injection, schedule: Q04DX002 (ip), vehicle: gum acacia): 95 % of control

Cc1ccc(NC(=O)Nc2cc(C)on2)c([N+](=O)[O-])c1
T/C [1]: 96 % of control
T/C [2]: 96 % of control
T/C [3]: 100 % of control and 91 % of control

Cc1ccc(S(=O)(=O)Oc2ccccc2C)cc1
T/C [3]: 97 % of control
T/C [4]: 103 % of control
T/C [5]: 103 % of control

NC(=S)Nc1ccccc1Cl
T/C [6]: 103 % of control
T/C [7]: 101 % of control

COc1ccccc1CC(C)(C)O
T/C (dose: 50.0 mg/kg/injection, schedule: Q01DX009 (ip), vehicle: saline with Tween-80): 98 % of control
T/C [8]: 95 % of control
T/C [9]: 101 % of control

c1ccc(C(C2CCCCC2)(C2CCCCC2)C(c2ccccc2)(C2CCCCC2)C2CCCCC2)cc1
T/C [1]: 105 % of control
T/C [2]: 111 % of control
T/C [3]: 92 % of control and 93 % of control
T/C [4]: 93 % of control
T/C [5]: 87 % of control

CCN(CC)CC(=O)NCC(CCN1CCCC1)(c1cccc2ccccc12)C(C)C (configuration not stated)
T/C [10]: 101 % of control
T/C [11]: 98 % of control
T/C [12]: 101 % of control

CN(C)CC1(C)CCc2c(ccc3ccccc23)C1O (configuration not stated)
T/C [13]: 94 % of control

Nc1ncnc2oc(-c3ccccc3)c(-c3ccccc3)c12
T/C (dose: 50.0 mg/kg/injection, schedule: Q04DX002 (ip), vehicle: saline with Tween-80): 91 % of control
T/C (dose: 100.0 mg/kg/injection, schedule: Q04DX002 (ip), vehicle: saline with Tween-80): 88 % of control

O=N[O-].[Co].[N-]=C=S.[NH2-].[NH2-].[NH2-].[NH2-]
T/C (dose: 6.25 mg/kg/injection, schedule: Q01DX009 (ip), vehicle: saline): 106 % of control
T/C (dose: 12.5 mg/kg/injection, schedule: Q01DX009 (ip), vehicle: saline): 114 % of control
T/C (dose: 12.5 mg/kg/injection, schedule: Q04DX003 (ip), vehicle: saline with Tween-80): 96 % of control
T/C (dose: 13.2 mg/kg/injection, schedule: Q01DX009 (ip), vehicle: saline): 104 % of control
T/C (dose: 16.0 mg/kg/injection, schedule: Q01DX009 (ip), vehicle: saline): 104 % of control
T/C (dose: 20.0 mg/kg/injection, schedule: Q01DX009 (ip), vehicle: saline): 113 % of control
T/C [10]: 104 % of control
T/C (dose: 25.0 mg/kg/injection, schedule: Q04DX003 (ip), vehicle: saline with Tween-80): 96 % of control
T/C (dose: 30.0 mg/kg/injection, schedule: Q01DX009 (ip), vehicle: saline): 113 % of control
T/C (dose: 35.0 mg/kg/injection, schedule: Q01DX009 (ip), vehicle: saline): 104 % of control
T/C [11]: 116 % of control
T/C (dose: 50.0 mg/kg/injection, schedule: Q04DX003 (ip), vehicle: saline with Tween-80): 88 % of control
T/C (dose: 100.0 mg/kg/injection, schedule: Q04DX003 (ip), vehicle: saline with Tween-80): 105 % of control
T/C (dose: 200.0 mg/kg/injection, schedule: Q04DX003 (ip), vehicle: saline with Tween-80): 90 % of control

CCCCCCCCCCCC(=O)Nc1ccc(O)cc1
T/C (dose: 25.0 mg/kg/injection, schedule: Q01DX009 (ip), vehicle: gum acacia): 93 % of control
T/C (dose: 50.0 mg/kg/injection, schedule: Q01DX009 (ip), vehicle: gum acacia): 93 % of control
T/C (dose: 100.0 mg/kg/injection, schedule: Q01DX009 (ip), vehicle: gum acacia): 96 % of control
T/C (dose: 100.0 mg/kg/injection, schedule: Q04DX003 (ip), vehicle: gum acacia): 88 % of control
T/C (dose: 200.0 mg/kg/injection, schedule: Q01DX009 (ip), vehicle: gum acacia): 92 % of control
T/C (dose: 200.0 mg/kg/injection, schedule: Q04DX003 (ip), vehicle: gum acacia): 86 % of control
T/C (dose: 400.0 mg/kg/injection, schedule: Q01DX009 (ip), vehicle: gum acacia): 92 % of control
T/C (dose: 400.0 mg/kg/injection, schedule: Q04DX003 (ip), vehicle: gum acacia): 95 % of control

COP(=O)(OC)OC1C(=O)NC(=O)NC1=O
T/C (dose: 50.0 mg/kg/injection, schedule: Q01DX001 (ip), vehicle: carboxymethylcellulose (CMC)): 98 % of control
T/C (dose: 100.0 mg/kg/injection, schedule: Q01DX001 (ip), vehicle: carboxymethylcellulose (CMC)): 93 % of control
T/C (dose: 200.0 mg/kg/injection, schedule: Q01DX001 (ip), vehicle: carboxymethylcellulose (CMC)): 96 % of control
T/C (dose: 400.0 mg/kg/injection, schedule: Q01DX001 (ip), vehicle: carboxymethylcellulose (CMC)): 96 % of control

NC(=O)OCC1OC(n2cnc3c(=O)[nH]c(N)nc32)C(O)C1O (configuration not stated)
T/C (dose: 25.0 mg/kg/injection, schedule: Q01DX009 (ip), vehicle: Klucel (hydroxypropylcellulose) (HPC)): 94 % of control
T/C [14]: 98 % of control
T/C (dose: 100.0 mg/kg/injection, schedule: Q01DX005 (ip), vehicle: saline): 105 % of control
T/C [15]: 94 % of control
T/C (dose: 200.0 mg/kg/injection, schedule: Q01DX005 (ip), vehicle: saline): 92 % of control

Cc1cc(C)c(-c2c(C)cc(C)cc2[N+](=O)[O-])c([N+](=O)[O-])c1
T/C [16]: 93 % of control
T/C [17]: 96 % of control
T/C [18]: 86 % of control

CCCCOC(=O)CCCC(=O)OCCCC
T/C [15]: 98 % of control
T/C [3]: 100 % of control
T/C (dose: 200.0 mg/kg/injection, schedule: Q01DX009 (ip), vehicle: Klucel (hydroxypropylcellulose) (HPC)): 97 % of control
T/C [4]: 101 % of control
T/C (dose: 400.0 mg/kg/injection, schedule: Q01DX009 (ip), vehicle: Klucel (hydroxypropylcellulose) (HPC)): 95 % of control
T/C [5]: 101 % of control

Nc1cc(Cl)c2[nH]cnc2n1
T/C (dose: 33.0 mg/kg/injection, schedule: Q01DX009 (ip), vehicle: Klucel (hydroxypropylcellulose) (HPC)): 179 % of control
T/C [14]: 151 % of control and 159 % of control
T/C (dose: 75.0 mg/kg/injection, schedule: Q01DX009 (ip), vehicle: Klucel (hydroxypropylcellulose) (HPC)): 161 % of control
T/C [13]: 118 % of control
T/C [15]: 97 % of control
T/C (dose: 133.0 mg/kg/injection, schedule: Q01DX001 (ip), vehicle: Klucel (hydroxypropylcellulose) (HPC)): 119 % of control
T/C (dose: 200.0 mg/kg/injection, schedule: Q01DX001 (ip), vehicle: Klucel (hydroxypropylcellulose) (HPC)): 121 % of control
T/C (dose: 300.0 mg/kg/injection, schedule: Q01DX001 (ip), vehicle: Klucel (hydroxypropylcellulose) (HPC)): 122 % of control

Cc1cc2c(cc1C)C(=O)OC2=O
T/C [8]: 102 % of control
T/C [9]: 98 % of control
T/C (dose: 400.0 mg/kg/injection, schedule: Q01DX009 (ip), vehicle: saline with Tween-80): 100 % of control

C[N+]1=COCC1(C)C
T/C [12]: 104 % of control
T/C [16]: 99 % of control
T/C [19]: 101 % of control
T/C [17]: 94 % of control
T/C (dose: 400.0 mg/kg/injection, schedule: Q01DX009 (ip), vehicle: saline): 115 % of control
T/C [18]: 97 % of control

O=[N+]([O-])c1ccc2n[nH]c(Cl)c2c1
T/C [6]: 95 % of control
T/C [7]: 95 % of control
T/C [20]: 94 % of control

CC12C3CCC(C3)C1(O)C2S(=O)(=O)N1CCCCC1 (configuration not stated)
T/C [12]: 110 % of control
T/C [19]: 104 % of control

C[n+]1ccc(C(=O)c2ccccc2)cc1
T/C (dose: 75.0 mg/kg/injection, schedule: Q01DX001 (ip), vehicle: saline): 94 % of control
T/C (dose: 150.0 mg/kg/injection, schedule: Q01DX001 (ip), vehicle: saline): 101 % of control

CCCCCCCCCc1cc(C)cc(Cc2cc(C)cc(CCCCCCCCC)c2O)c1O
T/C [6]: 98 % of control
T/C [7]: 98 % of control
T/C [20]: 101 % of control
